Data reported in the NIST ThermoML archive (doi:10.1016/j.fluid.2011.11.022).
Numbers after ± are expanded uncertainties.

Assay: wn = mass fraction of the nth substance listed
Conditions: Liquid, w2 = 0.5; for mass density: Buoyancy - hydrostatic balance; for viscosity: Falling or rolling sphere viscometry

OCCOCCO [diethylene glycol] + OCCO
Conditions	mass density [kg/m3]	viscosity [mPa·s]
298.15 K, 98 kPa	1112.21 ± 6.7	21.12 ± 0.86
298.15 K, 49030 kPa	1135.06 ± 6.8	28.23 ± 1.1
298.15 K, 98060 kPa	1151.37 ± 6.9	36.95 ± 1.5
298.15 K, 196130 kPa	1178.94 ± 7.1	60.47 ± 2.4
322.33 K, 49030 kPa	1121.67 ± 6.7	10.74 ± 0.44
322.34 K, 98 kPa	1097.38 ± 6.6	8.316 ± 0.34
332.21 K, 196130 kPa	1162.18 ± 7	20.76 ± 0.85
332.33 K, 98060 kPa	1132.91 ± 6.8	13.57 ± 0.55
353.8 K, 196130 kPa	1150.15 ± 6.9	7.683 ± 0.31
353.83 K, 98 kPa	1075.19 ± 6.5	3.488 ± 0.14
353.87 K, 49030 kPa	1101.62 ± 6.6	4.407 ± 0.18
354.1 K, 98060 kPa	1119.74 ± 6.7	5.334 ± 0.22
392.87 K, 98 kPa	1043.14 ± 6.3	1.641 ± 0.067
393.06 K, 49030 kPa	1072.66 ± 6.4	1.986 ± 0.081
393.3 K, 98060 kPa	1093.17 ± 6.6	2.36 ± 0.096
393.6 K, 196130 kPa	1126.12 ± 6.8	3.232 ± 0.13
435.93 K, 49030 kPa	1035.82 ± 6.2	1.09 ± 0.044
435.98 K, 98060 kPa	1060.12 ± 6.4	1.293 ± 0.053
436.08 K, 98 kPa	1001.82 ± 6	0.885 ± 0.036
436.13 K, 196130 kPa	1097.25 ± 6.6	1.731 ± 0.07
462.52 K, 98060 kPa	1037.39 ± 6.2	0.989 ± 0.04
462.54 K, 196130 kPa	1077.67 ± 6.5	1.313 ± 0.053
462.73 K, 49030 kPa	1011.05 ± 6.1	0.791 ± 0.032
462.75 K, 98 kPa	973.24 ± 5.8	0.671 ± 0.027

OCCOCCOCCO [triethylene glycol] + OCCOCCO
Conditions	mass density [kg/m3]	viscosity [mPa·s]
298.15 K, 98 kPa	1116.28 ± 6.7	32.4 ± 1.3
298.15 K, 49030 kPa	1140.16 ± 6.8	48.05 ± 2
298.15 K, 98060 kPa	1157.54 ± 7	68.97 ± 2.9
298.15 K, 196130 kPa	1186.23 ± 7.1	134.9 ± 6.8
322.18 K, 196130 kPa	1172.01 ± 7	39.19 ± 1.6
322.32 K, 98060 kPa	1143.4 ± 6.9	22.33 ± 0.92
322.38 K, 49030 kPa	1125.8 ± 6.8	16.39 ± 0.67
322.43 K, 98 kPa	1104.5 ± 6.6	11.71 ± 0.48
355.15 K, 98 kPa	1083.98 ± 6.5	4.468 ± 0.18
355.59 K, 49030 kPa	1103.74 ± 6.6	5.935 ± 0.24
355.77 K, 98060 kPa	1122.4 ± 6.7	7.663 ± 0.32
355.95 K, 196130 kPa	1151.5 ± 6.9	12.1 ± 0.5
391.02 K, 98 kPa	1055.33 ± 6.3	2.179 ± 0.089
391.29 K, 49030 kPa	1076.96 ± 6.5	2.772 ± 0.11
391.39 K, 98060 kPa	1098.19 ± 6.6	3.484 ± 0.14
391.57 K, 196130 kPa	1129.2 ± 6.8	5.188 ± 0.21
432.13 K, 98 kPa	1014.59 ± 6.1	1.172 ± 0.048
432.65 K, 98060 kPa	1067.76 ± 6.4	1.884 ± 0.077
432.68 K, 196130 kPa	1102.63 ± 6.6	2.658 ± 0.11
432.76 K, 49030 kPa	1041.87 ± 6.3	1.51 ± 0.062
472.77 K, 196130 kPa	1075.84 ± 6.5	1.747 ± 0.072
472.82 K, 98060 kPa	1035.69 ± 6.2	1.236 ± 0.051
473.06 K, 49030 kPa	1003.66 ± 6	1.008 ± 0.041
473.1 K, 98 kPa	965.58 ± 5.8	0.716 ± 0.029

OCCOCCOCCO [triethylene glycol] + OCCO
Conditions	mass density [kg/m3]	viscosity [mPa·s]
298.13 K, 98 kPa	1115.1 ± 6.7	26.24 ± 1.1
298.15 K, 49030 kPa	1136.47 ± 6.8	35.89 ± 1.5
298.15 K, 98060 kPa	1152.73 ± 6.9	48.05 ± 2
298.15 K, 196130 kPa	1180.8 ± 7.1	82.26 ± 3.6
322 K, 196130 kPa	1169.4 ± 7	27.05 ± 1.1
322.25 K, 98060 kPa	1139.05 ± 6.8	17.16 ± 0.7
322.32 K, 49030 kPa	1121.83 ± 6.7	13.34 ± 0.55
322.36 K, 98 kPa	1101.75 ± 6.6	10.13 ± 0.42
355.34 K, 98 kPa	1079 ± 6.5	3.999 ± 0.16
355.56 K, 49030 kPa	1099.04 ± 6.6	5.082 ± 0.21
355.67 K, 98060 kPa	1118.11 ± 6.7	6.302 ± 0.26
355.76 K, 196130 kPa	1151.43 ± 6.9	9.251 ± 0.38
392.2 K, 98 kPa	1047.37 ± 6.3	1.946 ± 0.08
392.33 K, 49030 kPa	1070.25 ± 6.4	2.418 ± 0.099
392.39 K, 98060 kPa	1092.45 ± 6.6	2.907 ± 0.12
392.77 K, 196130 kPa	1129.25 ± 6.8	4.045 ± 0.17
434.54 K, 98060 kPa	1059.58 ± 6.4	1.581 ± 0.065
434.56 K, 49030 kPa	1032.55 ± 6.2	1.33 ± 0.054
434.59 K, 98 kPa	1002.88 ± 6	1.058 ± 0.043
434.7 K, 196130 kPa	1101.01 ± 6.6	2.158 ± 0.088
462.27 K, 196130 kPa	1080.63 ± 6.5	1.616 ± 0.066
462.4 K, 49030 kPa	1004.97 ± 6	0.996 ± 0.041
462.47 K, 98060 kPa	1035.79 ± 6.2	1.196 ± 0.049
462.61 K, 98 kPa	968.72 ± 5.8	0.705 ± 0.029
